{
  "source": "patent US20180128811A1",
  "about": "(JNC Corporation, priority 2012, published 2018)",
  "origin": "cited, not measured here",
  "conditions": "small doses (about less than 250 mg), first-order kinetics; cited from earlier work",
  "data": [
    {"smiles": "CC(=O)Oc1ccccc1C(=O)O", "note": "[aspirin, acetylsalicylic acid]", "values": [
      {"measurement": "Elimination half-life", "value": "about 4 hours"}
    ]}
  ]
}
